Reference: patent US20090053138A1, “Stabilized Aptamers to Platelet Derived Growth Factor and their Use as Oncology Therapeutics” (priority 2002, published 2009)
Read-outs that look alike come from different tables or passages of the source. [invdT] = inverted (3'-3') thymidine

Key:
[1] = tested on: LS174T colon cancer xenograft; conditions: Experiment 3
Text: Experimental overview. Human HT-29 or LS174T colon cancer xenotransplants were established in athymic nude mice (Nu/Nu mice, Charles River Labs, Wilmington, Mass.) by injecting mice with 1×10^7 HT29 cells (ATCC, Manassas, Va.), or 2×10^6 LS174T cells (ATCC Manassas, Va.) sub-cutaneously and allowing the tumors to grow for 5 days. On day 5, two dimensional measurements of the established tumors were taken using a digital caliper. Once tumor measurements were taken, the mice were randomized into groups such that the average tumor size was the same in each group. […]
A third experiment (Experiment 3) was designed to test ARC308/irinotecan and GLEEVEC™/irinotecan dosing regimens in a colon cancer xenotransplant model using human colon carcinoma cell line LS174T (ATCC). […] ARC308 was dosed via intraperitoneal delivery at 50 mg/kg once daily, and GLEEVEC™ was dosed at 50 mg/kg once daily, Monday through Friday. ARC308 prevents PDGF-BB from binding the PDGF receptor; this molecule has a 30K PEG attached. […] The results are statistically significant (two tailed students T-test).
An efficacy analysis of three treatment groups in this study is shown in Table 10 in terms of log cell kill and log cell kill net. Log cell kill is the log(base10) of the number of tumor cells before treatment divided by the number of cells after treatment. […] A fourth experiment (Experiment 4) was designed to further test ARC308/irinotecan dosing regimens in a colon cancer xenotransplant model using human colon carcinoma cell line LS174T (ATCC). […]

PDGF BB [2] = target: T1, PDGF BB (Homo sapiens, UniProt P01127); experiment: 3T3 cell proliferation assay (PDGF-BB induced); type: cell-based, rat; parameters: purchased PeproTech, Rocky Hill, N.J; conditions: for potency compared to ARC127: tyrosine kinase inhibitors
Method: 3T3 cells, a rat fibroblast cell line (ATCC, Manassas, Va.), were plated 3,000 cells/well in a 96 well plate one day prior to the start of the assay in 100 ul DMEM/10% FCS. The following day, cells were washed once with straight DMEM and then 75 ul DMEM/0.8% FCS was added to each well. […] Cells were incubated for 3 days. Following incubation 10 ul MTT (Promega, Madison, Wis.) was added to each well and incubated for an additional 1.5 hours. Media was then removed, 200 ul Isopropanol (2-propanol) was added to each well, cells were re-suspended thoroughly and absorbance at 570 nm was read on a 96 well plate reader.
(§1) 3T3 cells, which are derived from a rat fibroblast cell line (ATCC, Manassas, Va.), were used in a proliferation assay to test potency of modified ARC513 aptamers. 3T3 fibroblast cells have PDGF receptors on their cell-surface and respond to mitogen, e.g., PDGF stimulation by proliferation. The assay was performed as follows: 3T3 cells were plated 3,000 cells/well in a 96 well plate one day prior to the start of the assay in 100 ul DMEM/10% FCS. The following day, cells were washed once with straight DMEM and then 75 ul DMEM/0.8% FCS was added to each well. Then 25 ul of PDGF-BB (PeproTech, Rocky Hill, N.J.) at a 50 ng/ml final concentration was added to each well +/− aptamer condition to be tested. […] The functional PDGF aptamer dilutions usually consisted of 6 points in 2-fold serial dilutions.
(§2) Cells were incubated for 3 days. Following incubation 10 ul MTT (Promega, Madison, Wis.) was added to each well and incubated for an additional 1.5 hours. Media was removed, 200 μl Isopropanol (2-propanol) was added to each well, cells were re-suspended thoroughly and absorbance at 570 nm was read on a 96 well plate reader. The present example depicts the potency comparison of PDGF aptamer ARC: 513 to that of ARC 513 variants.
The 3T3 proliferation assay previously described was used to test potency of all PEG conjugated ARC513 variants described immediately above. The assay was performed as follows: 3T3 cells were plated 3,000 cells/well in a 96 well plate one day prior to the start of the assay in 100 ul DMEM/10% FCS. The following day, cells were washed once with straight DMEM and then 75 ul DMEM/0.8% FCS was added to each well. Then 25 ul of PDGF-BB (PeproTech, Rocky Hill, N.J.) at a 50 ng/ml final concentration was added to each well +/− aptamer condition to be tested. […] The functional PDGF aptamer dilutions usually consisted of 6 points in 2-fold serial dilutions.
as §2, with “ARC513” for “ARC: 513”, “PEGylated ARC513 aptamers.” for “ARC 513 variants.”
as §1, with “3T3” for “3T3 cells, which are derived from a rat fibroblast cell line (ATCC, Manassas, Va.), were used in a proliferation assay to test potency of modified ARC513 aptamers. 3T3”, “100 μl” for “100 ul”
as §2, with “[…]” for “μl”, “reader.” for “reader. The present example depicts the potency comparison of PDGF aptamer ARC: 513 to that of ARC 513 variants.”

PDGF BB [3] = target: T1, PDGF BB; experiment: Competition binding assay, PDGF-BB; parameters: purchased PeproTech, Rocky Hill, N.J; conditions: Table 2, mean affinity, competitive binding assay; read-out: Affinity
Method: Binding reactions were carried out in phosphate-buffered saline (Cellgro, Herndon, Va.) containing 0.2 mg/mL bovine serum albumin (NEB) and 0.02 mg/mL tRNA (Sigma, St. Louis, Mo.). The reactions were equilibrated for a period of 15-30 minutes at room temperature, then filtered through a sandwich of nitrocellulose (Protran membrane, Perkin-Elmer, Boston, Mass.) and nylon (Hybond membrane, Amersham, Piscataway, N.J.) membranes to separate target bound aptamer from free aptamer.
Next, a study was done to determine whether ARC126 cross reacted with PDGF-BB of species other than human. Competition binding assays were set up by dot blot analysis, as previously described, using human, rat, and mouse PDGF-BB (PeproTech, Rocky Hill, N.J.).
The competitive binding assay previously described was used to determine the in vitro binding affinity and selectivity of ARC594 for different PDGF isoforms. Different concentrations of unlabeled, competitor aptamer were titrated in separate reactions against a fixed (<0.1 nM) amount of ^32P-radiolabeled ARC594 in buffer containing a fixed amount (0.1 nM) of the aptamer's cognate target (PDGF-BB; PeproTech). UnPEGylated version of ARC594 was radiolabeled at the 5′ terminus by incubation with γ-^32P-ATP (ICN) and polynucleotide kinase (NEB). Binding reactions were carried out in phosphate-buffered saline (Cellgro) containing 0.2 mg/mL bovine serum albumin (NEB) and 0.02 mg/mL tRNA (Sigma). The reactions were equilibrated for a period of 15-30 minutes at room temperature, then filtered through a sandwich of nitrocellulose (Protran membrane, Perkin-Elmer) and nylon (Hybond membrane, Amersham) membranes to separate target bound aptamer from free aptamer. […] The data was expressed as the ratio of the counts per minute (CPM) of radioactivity due to ^32P-ARC594 bound to PDGF BB on the nitrocellulose membrane (CPMnitrocellulose or CPMnc) over the total CPM (CPMtotal=CPMnitrocellulose+CPMnylon).

[4] = Pharmacokinetics of ARC126 5′ PEG conjugates in mice; conditions: IV administration at 10 mg/kg in mice
Text: The pharmacokinetic (PK) data shown in FIG. 12A was subjected to non-compartmental analysis (NCA) using the industry-standard software package WinNonLin™ v.4.0 (Pharsight Corp., Mountain View, Calif.). […] The pharmacokinetic (PK) data shown in FIG. 12B was subjected to noncompartmental analysis (NCA) using the industry-standard software package WinNonLin™ v.4.0 (Pharsight Corp., Mountain View, Calif.).
The pharmacokinetic (PK) data shown in FIG. 12B was subjected to noncompartmental analysis (NCA) using the industry-standard software package WinNonLin™ v.4.0 (Pharsight Corp., Mountain View, Calif.).

[5] = Table 2, mean activity, 3T3 proliferation assay, read-out: Activity

T1 sequence (P01127 82-190 limits assumed): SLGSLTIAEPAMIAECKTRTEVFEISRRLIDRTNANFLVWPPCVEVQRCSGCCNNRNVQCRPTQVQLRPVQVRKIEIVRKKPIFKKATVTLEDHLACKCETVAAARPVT

CCc1c2c(nc3ccc(OC(=O)N4CCC(N5CCCCC5)CC4)cc13)-c1cc3c(c(=O)n1C2)COC(=O)[C@]3(O)CC [Irinotecan, irinotecan, reference compound]
Activity Assessment [1]: Active
Log cell kill ([1]; target size 1000 mm^3, ARC308 50 mg/kg, irinotecan 150 mg/kg, combination extrapolated): 1.95
Log cell kill net ([1]; treatment duration 18 days, combination extrapolated): 0.28

124 (ACCATGATCCTGTG; 3' inverted dT, further chemistry not given here) [compound 124]
IC50 (PDGF BB [2]; [5]): 3.45 nM
IC50 (PDGF BB [2]; Table 6, PDGF-BB 50 ng/ml, nM, read-out: Mean IC50): 20.7 nM
Kd (PDGF BB [3]): 0.21 nM

5′-(SEQ ID NO: 69)-PEG-(SEQ ID NO: 40)-PEG-(SEQ ID NO: 70)-[3′T]-3′ (chain 1 CCCAGGCTACG; chain 2 CGTAGAGCAUCA; chain 3 TGATCCTGGG; piece 1: 2'-O-methyl at 11, other sugars and backbone not given here; piece 2: 2'-O-methyl at 5, 7, 10, 11, 12, other sugars and backbone not given here; piece 3: 2'-O-methyl at 5, 8, 9, 10, 3' [invdT], other sugars and backbone not given here; pieces joined by PEG spacers) [ARC513]
IC50 (PDGF BB [2]; PDGF-BB 50 ng/ml, read-out: IC50 values routinely displayed): < 10 nM

Cc1cc2ncc(-c3ccccc3)nc2cc1C [AG 1295, reference compound]
potency compared to ARC127 (PDGF BB [2]): much worse potencies

SEQ ID NO: 42-PEG-SEQ ID NO: 43-PEG-SEQ ID NO: 44 (chain 1 CAGGCTACG; chain 2 CGTAGAGCATCA; chain 3 TGATCCTG; DNA, backbone not given here; PEG-6 spacers join the three pieces) [ARC299]
binding affinity and cell-based assay activity (in words) (PDGF BB [2]; in vitro biochemical binding and cell-based proliferation assays): significantly reduced activity/potency

Cc1cc2ncc(-c3ccc(O)c(O)c3)nc2cc1C [AG 1433, reference compound]
unspecific toxic effects, concentration from which visible (PDGF BB [2]; signal lower than no treatment): ≥ 300 nM
potency compared to ARC127 (PDGF BB [2]): much worse potencies

5′-[20K PEG]-(SEQ ID NO:1)-HEG-(SEQ ID NO:2)-HEG-(SEQ ID NO:3)-3′-dT-3′ (chain 1 CAGGCUACG; chain 2 CGTAGAGCAUCA; chain 3 TGATCCUG; 5′ 20 kDa PEG; HEG spacers; 3′ dT cap; synthetic aptamer; modified_base (6)..(6) uridine is 2′-fluoro; modified_base (8)..(8) cytidine is 2′-fluoro; modified_base (9)..(9) gm; modified_base (5)..(5) gm; modified_base (7)..(7) gm; modified_base (10)..(10) uridine is 2′-fluoro; modified_base (11)..(11) cytidine is 2′-fluoro; modified_base (12)..(12) adenosine is 2′-O-Methyl; modified_base (5)..(6) cytidine is 2′-fluoro; modified_base (7)..(7) uridine is 2′-fluoro; modified_base (8)..(8) gm) [ARC240]
Cmax [4]: 34.3 µM
MRT [4]: 1.16 h
Vs [4]: 0.0003 L/kg
t1/2 [4]: 0.94 h

5′-(SEQ ID NO: 36)-PEG-(SEQ ID NO: 37)-PEG-(SEQ ID NO: 38)-[3′]-3′ (chain 1 CAGGCTACG; chain 2 CGTAGAGCATCA; chain 3 TGATCCTG; piece 1: 2'-O-methyl at 9, other sugars and backbone not given here; piece 2: 2'-O-methyl at 5, 7, 12, other sugars and backbone not given here; piece 3: 2'-O-methyl at 8, other sugars and backbone not given here; further chemistry not fully specified) [ARC276]
IC50 (PDGF BB [2]; [5]): 18 nM
Kd (PDGF BB [3]): 0.23 nM
